This is an account of results in US12285408B2, “Methods and compositions for the treatment of snake bite” (priority 2021, dated 2025).

The conditions of data set [1]: cited from earlier work.
Data set [2] deals with SVMP activity of E. ocellatus, E. carinatus, B. asper and B. arietans venoms. The experiment in a line: In vitro kinetic fluorogenic SVMP assay (Study 2). It is filed as biochemical. The text has this: FIG. 10. […] (A) SVMP activities of the five viper venoms quantified by fluorogenic assay. The data presented represent mean measurements and SEMs of area under the curves of fluorescent arbitrary units taken from three independent experimental runs. EOC, E. ocellatus; ECAR, E. carinatus; BAS, Bothrops asper, BAR, Bitis arietans; DRUS, Daboia russelii. (B) The effectiveness of metal chelators and peptidomimetic hydroxamate inhibitors at inhibiting the SVMP activity of the various viper venoms. Drug concentrations from 150 μM to 150 nM (highest to lowest dose tested) are presented. The data is expressed as percentage of the venom-only sample (100%, top dashed line). The negative control is presented as an interval (bottom dashed lines) and represents the values recorded in the PBS-only samples (expressed as percentage of venom activity), where the highest and the lowest values in each set of independent experiments are depicted. […] All data represent triplicate independent repeats with SEMs, where each technical repeat represents the mean of n≥2 technical replicates.
We used an in vitro kinetic fluorogenic assay^28 to assess the SVMP bioactivity of each venom and its inhibition by varying concentrations of the four SVMP-inhibitors.
The SVMP assay measuring metalloproteinase activity and the plasma assay measuring coagulation in the presence or absence of venoms and inhibitors were performed as previously described^28. The SVMP assay kinetically measured cleavage of a quenched fluorogenic substrate (ES010, R&D Biosystems) by venom in the presence or absence of inhibitors.
Briefly, 10 μl of the substrate (supplied as a 6.2 mM stock) was used per 5 ml reaction buffer (150 mM NaCl, 50 mM Tris-CI pH 7.5). Reactions consisted of 10 μl of venom±inhibitors in PBS and 90 μl of substrate. Venoms were used at 1 μg/reaction and final inhibitor concentrations ranged from 150 μM to 150 nM. Samples were preincubated for 30 min at 37° C. and pipetted in triplicate into 384-well plates (Greiner). Thereafter, data was collected on an Omega FLUOstar (BMG Labtech) instrument at an excitation wavelength of 320 nm and emission wavelength of 405 nm at 25° C. for 1 h. The areas under the curve (AUCs) in the 0-40 min interval were calculated for each sample using MARS data analysis software v3.31 (BMG Labtech); this time point was chosen as the time where all fluorescence curves had reached a plateau (maximum fluorescence). For comparing venom-only samples, the means of at least three independent experimental runs for each condition, expressed as AUCs (n≥3), were plotted at each inhibitor concentration with standard error of the mean (SEM). To determine inhibitor efficacy, the AUCs for each of the samples that consisted of venom+inhibitors were transformed and expressed as percentages of the venom-only sample (where the venom was 100%). The negative control (PBS only) was also expressed relative to the venom, and the variation in background was presented as an interval delineated by the lowest and highest values in the PBS-only samples across concentrations and inhibitors for a specific venom. […] However, only the latter two concentrations were sufficiently depleted of DMSO for viable use in the assay.

Data set [3] has as its system D. russelii venom coagulation-related activities. Briefly: Plasma clotting assay, whole D. russelii venom. It is filed as biochemical, Daboia russelii. As to conditions: 150 μM to 150 nM. On the procedure:
FIG. 12. […] The data is plotted separately for ‘very fast coagulation’, ‘medium coagulation’ and ‘anticoagulation’, based on the slopes of the 0-5 min and 0-20 min readings, and the single endpoint reading at 180 min. The tested inhibitor concentrations are presented alongside the chromatograms. […] The data is presented as the maximal clotting velocity at each concentration, and represents means of triplicate independent repeats with SEMs, where each technical repeat represents the mean of n≥2 technical replicates. The venom-only control (top dashed lines) and the negative control (bottom dashed lines) are presented as intervals and represent the average±SEM observed for the venom-only and PBS controls across all datasets and replicates.
We used a previously developed plasma clotting assay^35 to measure venom-induced coagulation. Briefly, 100 ng of each venom was incubated at 37° C. for 30 min in the presence or absence of inhibitors (150 μM to 150 nM final concentrations). […] The samples were pipetted in triplicate into 384-well plates, and absorbance monitored at 595 nm for 2 h at 25° C. on an Omega FLUOstar instrument. We calculated the maximum clotting velocity of each of the curves as per clot waveform analysis^67, by calculating the maximum of the first derivative. […]

For the molecule `CCc1c(C(=O)C(N)=O)c2c(OCC(=O)O)cccc2n1Cc1ccccc1` [varespladib], in data set [1] (Phase 1 and 2), the “tolerability” value is recorded as “well tolerated”. Further, the “risk of major adverse cardiovascular events” value in data set [1] (Phase 2B, same daily dose, >300 patients for >6 months) is given as “no greater risk of major adverse cardiovascular events”. Further, the “risk of myocardial infarction” value in data set [1] (Phase 3, acute coronary syndrome patients, 500 mg oral daily) is “greater risk of myocardial infarction than those receiving placebo”.
For `CNC(=O)[C@@H](NC(=O)[C@H](CC(C)C)[C@H](O)C(=O)NO)C(C)(C)C` [marimastat], the “neutralization of SVMP bioactivity” value in data set [2] (marimastat 150 nM-150 μM, batimastat […] and 150 nM only) is reported as “complete in vitro neutralization”. Moreover, the “effect on procoagulant activity of whole D. russelii venom” value in data set [3] is “revealed clear venom anticoagulant effects”. In data set [1] (single doses of up to 800 mg, bidaily 200 mg for 6.5 days, or 75 mg daily for 28 days), the “side effects” value is “no notable side effects”.
On to `O=S(=O)(O)CC(S)CS` (stereo not drawn) [DMPS, 2,3-dimercapto-1-propanesulfonic acid], for which, in data set [2] (concentrations tested 150 μM to 150 nM), the “lowest concentration effective / required to fully inhibit SVMP activities” value is 15 µM. For the same molecule, the IC50 in data set [2] (range across venoms, 1 μg venom/reaction, read-out: IC50s, inhibition of SVMP activity) was 0.29 to 4.19 µM. Besides, the “effect on procoagulant activity of whole D. russelii venom” value in data set [3] is on record as “ineffective”.
